Measurements published in patent US20230414611A1, “REFINED USES OF GABA A RECEPTOR MODULATORS IN TREATMENT OF FRAGILE X SYNDROME” (CHILDREN'S HOSPITAL MEDICAL CENTER, priority 2020, published 2023).

Columns and labels:
Format in all cases: in vivo, human
[1] = test system: adults with Fragile X Syndrome (FXS); experiment: ABC-FXS subscales; design: scale not given here; settings: undetectable FMRP males (n=5), mean ± SD
From the text: Tables 11-16 below summarize alternative […] scoring for the FXS patient treated with AZD7325. ABC-FXS was created for use within this population to take into account FXS-specific symptoms, and has six subscales: Irritability, Social Unresponsiveness/Lethargy, Stereotypy, Hyperactivity, Inappropriate Speech, and Social Avoidance.

[2] = test system: adults with Fragile X Syndrome (FXS); experiment: RBANS list learning in AZD7325 clinical study; design: key to RBANS list learning, difference of least squares means, Estimate: Baseline - Low: difference in raw score (number of words remembered); key to RBANS-LL score: raw score = number of words remembered; higher is better; settings: for RBANS-LL score: undetectable FMRP male subjects (n=5), mean ± SD
From the text: This study aims at investigating the safety, tolerability, and blood pharmacodynamics of treatment with oral administration of AZD7325 in adults with Fragile X Syndrome (FXS). This study also investigates measures of efficacy and biomarkers during treatment.
The treatment conditions are provided Table 2 below:
Table 5 below summarizes clinical measure RBANS List Learning scores from the 5 “undetectable” FMRP male subjects. RBANS List Learning is a verbal working memory task and raw scores provided indicate number of words remembered, with higher scores indicating more number of words remembered. Group average and standard deviation were obtained cross subjects per treatment type (Placebo/Low dose/High dose) and per visit, which are 1) baseline: before intake, 2) acute: after the first dosage, and 3) chronic: post 2-week daily dosage. Higher scores are clinically better.

[3] = test system: adults with Fragile X Syndrome (FXS); experiment: RBANS list learning in AZD7325 clinical study; design: key to RBANS list learning, difference of least squares means, Estimate: Low - High / RBANS list learning, difference of least squares means, Estimate: Baseline - High: difference in raw score (number of words remembered); settings: for RBANS_LL change: chronic
[4] = test system: adults with Fragile X Syndrome (FXS); experiment: EEG relative band power
From the text: Brain cells communicate via electrical impulses and are active all the time, even a subject is asleep. Electroencephalogram (EEG) detects the electrical activity in the brain. EEG can measure alpha waves, beta waves, and gamma waves. FXS patients typically show low alpha (Alpha waves are involved in higher level, complex cognition) and elevated gamma (representing noise, excessive synaptic connectivity-brain cells over connecting). Gamma activations represent high frequency brain rhythms, which may coincide with functional brain activity and/or muscular activity.
EEG statistical analysis strategies used in this study include: (a) electrode-specific relative band power estimation; (b) applying crossover-trial modeling to validate the absence of period effect; and (c) testing the within-subject relative power change per condition (i.e., determining impact of AZD7325 on gamma power in a treated patient).

[5] = subgroup of males (outlier removed), low dose 5 mg twice per day oral
[6] = subgroup of males (outlier removed), high dose 15 mg twice per day oral
[7] = Placebo vs High dose, acute visit, FMRP undetectable subjects (n = 5)
[8] = Placebo vs High dose, acute visit, male subjects (n = 9)
[9] = Placebo vs High dose, chronic visit, FMRP undetectable subjects (n = 5)
[10] = Placebo vs High dose, chronic visit, all subjects (n = 12)
[11] = Placebo vs High dose, chronic visit, male subjects (n = 9)
[12] = Placebo vs Low dose, acute visit, all subjects (n = 12)
[13] = Placebo vs Low dose, acute visit, male subjects (n = 9)
[14] = Placebo vs Low dose, chronic visit, FMRP undetectable subjects (n = 5)
[15] = Placebo vs Low dose, chronic visit, all subjects (n = 12)
[16] = Placebo vs Low dose, chronic visit, male subjects (n = 9)
[17] = high dose relative to low dose, acute, male patients
[18] = high dose relative to low dose, acute, peripheral FMRP nondetectable patients
[19] = high dose relative to low dose, chronic, all patients
[20] = high dose relative to low dose, chronic, male patients
[21] = high dose relative to low dose, chronic, peripheral FMRP nondetectable patients
[22] = low dose vs placebo, chronic, male detectable FMRP group

CCCNC(=O)c1nnc2c(-c3c(F)cccc3OC)cccc2c1N [AZD7325, 4-amino-8-(2-fluoro-6-methoxyphenyl)-N-propylcinnoline-3-carboxamide]
ABC_FXS_Subscale_1 Irritability ([1]; high dose, baseline): 10.2 ± 10.52 | ABC_FXS_Subscale_2 Socially Unresponsive/Lethargic ([1]; high dose, baseline): 1.8 ± 1.92 | ABC_FXS_Subscale_3 Stereotypy ([1]; high dose, baseline): 5.0 ± 1.87 | ABC_FXS_Subscale_4 Hyperactivity ([1]; high dose, baseline): 6.4 ± 6.80 | ABC_FXS_Subscale_5 Inappropriate Speech ([1]; high dose, baseline): 5.6 ± 4.56 | ABC_FXS_Subscale_6 Social Avoidance ([1]; high dose, baseline): 1.2 ± 1.79 | ABC_FXS_Subscale_1 Irritability ([1]; high dose, chronic): 9.2 ± 7.05 | ABC_FXS_Subscale_2 Socially Unresponsive/Lethargic ([1]; high dose, chronic): 1.0 ± 1.22 | ABC_FXS_Subscale_3 Stereotypy ([1]; high dose, chronic): 3.4 ± 0.55 | ABC_FXS_Subscale_4 Hyperactivity ([1]; high dose, chronic): 4.6 ± 6.31 | ABC_FXS_Subscale_5 Inappropriate Speech ([1]; high dose, chronic): 4.4 ± 3.78 | ABC_FXS_Subscale_6 Social Avoidance ([1]; high dose, chronic): 0.6 ± 0.89 | ABC_FXS_Subscale_1 Irritability ([1]; low dose, baseline): 9.8 ± 8.23 | ABC_FXS_Subscale_2 Socially Unresponsive/Lethargic ([1]; low dose, baseline): 2.4 ± 1.52 | ABC_FXS_Subscale_3 Stereotypy ([1]; low dose, baseline): 3.8 ± 2.28 | ABC_FXS_Subscale_4 Hyperactivity ([1]; low dose, baseline): 4.2 ± 3.77 | ABC_FXS_Subscale_5 Inappropriate Speech ([1]; low dose, baseline): 5.4 ± 4.16 | ABC_FXS_Subscale_6 Social Avoidance ([1]; low dose, baseline): 2.0 ± 1.87 | ABC_FXS_Subscale_1 Irritability ([1]; low dose, chronic): 9.4 ± 9.99 | ABC_FXS_Subscale_2 Socially Unresponsive/Lethargic ([1]; low dose, chronic): 2.2 ± 2.39 | ABC_FXS_Subscale_3 Stereotypy ([1]; low dose, chronic): 4.6 ± 3.05 | ABC_FXS_Subscale_4 Hyperactivity ([1]; low dose, chronic): 4.4 ± 4.98 | ABC_FXS_Subscale_5 Inappropriate Speech ([1]; low dose, chronic): 4.6 ± 3.29 | ABC_FXS_Subscale_6 Social Avoidance ([1]; low dose, chronic): 2.4 ± 1.82 | RBANS list learning scores, trend ([2]; all eligible subjects, low dose): might improve | performance on RBANS ([2]; high dose): dose limiting effect | RBANS_LL change ([2]; low dose, chronic, nondetectable FMRP subjects): all positive trended | memory as measured by the RBANS assay ([2]; low dose, males): improved memory | RBANS LL score increase, low dose compared to high dose ([2]; subgroup): e Low dose had greater score increase (benefit) than high dose, separating groups. | RBANS list learning, difference of least squares means, Estimate: Baseline - Low [2, 5]: −2.75 | change of RBANS LL from baseline ([2]; subgroup, high dose): c No change from baseline with high dose (direction is toward worsening, −2) | increase (benefit) of RBANS LL compared to placebo ([2]; subgroup, low dose): d Low dose demonstrated increase of nearly 4 (benefit) compared to placebo | increase (benefit) of RBANS LL from baseline ([2]; subgroup, low dose): b Low dose in this subgroup demonstrated an increase (benefit) of +2.75 of RBANS LL from baseline | RBANS-LL score ([2]; high dose, acute (after the first dosage)): 10.4 ± 7.40 | RBANS-LL score ([2]; high dose, baseline (before intake)): 14.8 ± 8.32 | RBANS-LL score ([2]; high dose, chronic (post 2-week daily dosage)): 12.2 ± 6.83 | RBANS-LL score ([2]; low dose, acute (after the first dosage)): 13.2 ± 3.11 | RBANS-LL score ([2]; low dose, baseline (before intake)): 10.6 ± 5.22 | RBANS-LL score ([2]; low dose, chronic (post 2-week daily dosage)): 14.6 ± 6.80 | effect of drug on RBANS list learning ([3]; all eligible subjects (p=0.09)): trending effect | RBANS_LL change ([3]; low dose, female detectable FMRP subjects): improves RBANS growth in 2 of the three female detectable subjects | RBANS_LL change ([3]; low dose, male detectable FMRP subjects): bi-directional distributed and overlap with placebo | effect on RBANS list learning ([3]; low dose, subgroup of males following removal of an outlier): significant beneficial effect | RBANS list learning, difference of least squares means, Estimate: Baseline - High [3, 6]: 2.09 | RBANS list learning, difference of least squares means, Estimate: Placebo - High [3, 6]: 0.84 | RBANS list learning, difference of least squares means, Estimate: Placebo - Low [3, 5]: −4.00 | RBANS list learning, difference of least squares means, Estimate: Low - High ([3]; subgroup of males (outlier removed), low dose vs high dose): 4.84 | EEG relative band power: alpha2 [4, 7]: local distant small clusters | EEG relative band power: beta [4, 7]: elevated broadly in the central and parietal regions | EEG relative band power: delta [4, 7]: local distant small clusters | EEG relative band power: alpha2 [4, 8]: central frontal power decrease | EEG relative band power: beta [4, 8]: elevates a broad region in the central and parietal regions | EEG relative band power: gamma1 [4, 8]: elevated electrodes in the right frontal region | EEG relative band power: beta [4, 9]: isolated electrodes in the parietal and occipital areas elevated | EEG relative band power: gamma [4, 9]: isolated electrodes in the parietal and occipital areas elevated | EEG relative band power: theta [4, 9]: decreased in the posterior area | EEG relative band power: beta [4, 10]: electrodes in the parietal and occipital areas elevated | EEG relative band power: gamma [4, 10]: electrodes in the parietal and occipital areas elevated | EEG relative band power: theta [4, 10]: decrease in the central area | EEG relative band power: beta [4, 11]: electrodes in the parietal and occipital areas elevated | EEG relative band power: gamma [4, 11]: electrodes in the parietal and occipital areas elevated | EEG relative band power: theta [4, 11]: decrease in the central area | EEG relative band power: beta ([4]; Placebo vs Low dose, acute visit, FMRP undetectable subjects (n = 5)): limited numbers of significantly effected electrodes | EEG relative band power: beta [4, 12]: limited numbers of significantly effected electrodes | EEG relative band power: theta [4, 12]: limited numbers of significantly effected electrodes | EEG relative band power: alpha [4, 13]: limited numbers of significantly effected electrodes | EEG relative band power: beta [4, 13]: limited numbers of significantly effected electrodes | EEG relative band power: beta [4, 14]: elevates beta power | EEG relative band power: theta [4, 14]: reduces theta band power | EEG relative band power: beta [4, 15]: increases beta and gamma band in the parietal region | EEG relative band power: gamma [4, 15]: increases beta and gamma band in the parietal region | EEG relative band power: theta [4, 15]: reduces theta band | EEG relative band power: alpha [4, 16]: retain consistent | EEG relative band power: beta [4, 16]: increases beta and gamma bands in the parietal | EEG relative band power: theta [4, 16]: reduces theta band | EEG relative band power: beta ([4]; high dose relative to low dose, acute, all patients): elevate in multiple clusters | EEG relative band power: alpha2 [4, 17]: decreased power cluster in the right central region | EEG relative band power: beta [4, 17]: elevate in multiple clusters | EEG relative band power: beta [4, 18]: elevate in multiple clusters | EEG relative band power: delta (left frontal cluster) [4, 18]: reduced delta band power | EEG relative band power: alpha2 (frontal) [4, 19]: decrease | EEG relative band power: beta [4, 19]: scattered elevated spots | EEG relative band power: delta [4, 19]: scattered elevated spots | EEG relative band power: gamma [4, 19]: scattered elevated spots | EEG relative band power: alpha2 (frontal area) [4, 20]: decrease in relative power | EEG relative band power: delta [4, 20]: electrode in left central area elevated | EEG relative band power: gamma sub-bands [4, 20]: No significant change | EEG relative band power: alpha2 (temporal side) [4, 21]: decrease in relative power | EEG relative band power: beta (temporal side) [4, 21]: decrease in relative power | EEG relative band power: gamma bands [4, 21]: same occipital electrode elevated | EEG power (beta band) ([4]; low dose vs placebo, chronic, female (detectable FMRP)): does not effect | EEG beta power [4, 22]: elevates beta power | EEG gamma 1 power (E31) [4, 22]: elevates gamma 1 power | EEG theta band power [4, 22]: reduces theta band power | EEG band power: gamma bands ([4]; low dose vs placebo, chronic, male subjects, parietal): increases beta and gamma bands in the parietal | EEG gamma 1 power (E31) ([4]; low dose vs placebo, chronic, nondetectable FMRP group): elevates gamma 1 power | EEG gamma 1 power ([4]; low dose, chronic, female subjects): does not grow gamma 1 power | gamma waves (EEG) ([4]; low dose, male patients having undetectable peripheral FMRP): decreased gamma waves
